Columns and labels:
Dyslipidemia subjects = assay: Phase II studies in Dyslipidemia subjects; type: in vivo, human; conditions: 4 mg once daily
Experimental: This was exploratory proof of concept study designed to assess the proof of safety and efficacy in intended population. […] Based upon these observations 4 mg once daily in fasted condition was selected for present study

[1] = Phase I study, effect of food on absorption; type: in vivo, human
[2] = system: subjects with hypertriglyceridemia in HIV associated lipodystrophy; assay: Prospective, multi-centric, open-label, single arm study of 4 mg of compound of formula (I) in hypertriglyceridemia in HIV associated lipodystrophy; type: in vivo, human; conditions: 4 mg oral once daily; for Homa of Insulin Resistance for C-Peptide, Mean ± SD: Visit 1 mean 1.59 ± 0.82; for Insulin (fasting), Mean ± SD: Visit 1 mean 9.21 ± 6.26; for HDL Cholesterol, Mean ± SD: Visit 1 mean 35.27 ± 7.85; for HOMA of Beta Cell Function for Insulin, Mean ± SD: Visit 1 mean 107.82 ± 52.85; for TG, Mean ± SD: Visit 1 mean 301.68 ± 86.99; for Homa of Insulin Resistance for C-Peptide, Median: Visit 1 median 1.40; for Insulin (fasting), Median: Visit 1 median 7.40; for HDL Cholesterol, Median: Visit 1 median 34.52; for HOMA of Beta Cell Function for Insulin, Median: Visit 1 median 97.25; for TG, Median: Visit 1 median 275.45
Text: After obtaining informed written consent, subjects with hypertriglyceridemia in HIV associated lipodystrophy, on treatment with HAART for at least 18 months and satisfying the inclusion and exclusion criteria were enrolled in the study.
The primary efficacy endpoint was to assess the percent change in TG levels from baseline to Week 6 and Week 12. The secondary efficacy endpoint was the assessment of LDL, VLDL, HDL, Non HDL cholesterol, Total cholesterol, Apo Al, Apo B, and C-peptide and fasting insulin for HOMA beta and HOMA IR.
For the efficacy endpoints, treatment effect was evaluated using an analysis of variance (ANOVA) model with factors for baseline and treatment. Treatment effects were estimated using the least-square means (LSM) and 95% confidence intervals (CIs) from the ANOVA model. Statistical significance was defined as a two-sided p-value <0.05. All other secondary endpoints were analyzed using appropriate statistical methods.
Subjects who satisfied all of the following criteria were eligible for enrolment in the study: • 1. Males and females aged 18-65 years. • 2. Confirmed diagnosis of HIV1 and on HAART for at least 18 months. • 3. On stable ART regimen for at least 8 weeks prior to inclusion in the study and ART regimen not expected to change in next 3 months. • 4. Subjects clinically diagnosed as HIV lipodystrophy (at least 1 moderate or severe lipodystrophy feature identified by doctor and patient, except isolated abdominal obesity) • 5. Triglycerides>200 to 500 mg %. • 6. CD4 count of>50/mm^3 • 7. Subject who had given informed consent for participation in this trial. Treatments Treatments Administered […]
The primary efficacy endpoint was to determine the percent change in TG levels from baseline to Week 6 and Week 12.
The secondary efficacy endpoint was to determine the percent change in LDL, VLDL, HDL, total cholesterol, non-HDL Cholesterol (measured value), Apo Al, and Apo B, C-peptide and fasting insulin for HOMA beta and HOMA IR levels from baseline to Week 6 and Week 12.
The primary efficacy variable was the reduction in TG at Week 6 and Week 12 of the treatment period compared with baseline. The change from baseline was determined as the difference between the means for the treatment period (Weeks 6/Weeks 12) and the baseline.
Intent-to-treat (ITT) and/or Per Protocol (PP) analysis were carried out for the study. The PP analysis was considered definitive while the ITT analysis was considered supportive during the trial analysis.
One subject identified as EHT004 in the study, a person, was reported with abnormally low levels of HDL (3.95 mg/L) and LDL (6.25 mg/L) at Visit 1. Though this subject completed the study and was assessable for efficacy, it was decided to exclude this subject from the efficacy analyses. Therefore a total of 49 subjects were analyzed for efficacy.

[3] = system: HIV-infected men with central obesity and low testosterone levels; conditions: transdermal gel 10 g daily, 24 weeks, cited from earlier work
[4] = Visit 3 (Week 6), p <0.0001, listed as COMPOUND OF FORMULA(I)
[5] = Visit 4 (Week 12), p <0.0001, listed as COMPOUND OF FORMULA(I)

Molecule: (S)-α-Ethoxy-4-[2-[-methyl-5-[4-(methylthio)phenyl]-1H-pyrrol-1-yl]ethoxy] benzenepropanoic acid magnesium salt [compound of formula (I)]
- efficacy (Dyslipidemia subjects): effective
- tolerability (Dyslipidemia subjects): well tolerated
- effect of food on absorption [1]: food significantly affects absorption
- HDL Cholesterol, Maximum ([2]; Visit 3 (Week 6)): 73.50 mg/dL
- HDL Cholesterol, Minimum ([2]; Visit 3 (Week 6)): 20.13 mg/dL
- HOMA of Beta Cell Function for Insulin, Maximum ([2]; Visit 3 (Week 6)): 348.00
- HOMA of Beta Cell Function for Insulin, Minimum ([2]; Visit 3 (Week 6)): 34.90
- Homa of Insulin Resistance for C-Peptide, Maximum ([2]; Visit 3 (Week 6)): 3.60
- Homa of Insulin Resistance for C-Peptide, Minimum ([2]; Visit 3 (Week 6)): 0.90
- Insulin (fasting), Maximum ([2]; Visit 3 (Week 6)): 26.82 μu/mL
- Insulin (fasting), Minimum ([2]; Visit 3 (Week 6)): 2.14 μu/mL
- TG, Maximum ([2]; Visit 3 (Week 6)): 631.08 mg/dL
- TG, Minimum ([2]; Visit 3 (Week 6)): 42.61 mg/dL
- Homa of Insulin Resistance for C-Peptide, Mean ± SD ([2]; Visit 3 (Week 6)): 1.86 ± 0.77
- Insulin (fasting), Mean ± SD ([2]; Visit 3 (Week 6)): 10.42 ± 5.74 μu/mL
- HDL Cholesterol, Mean ± SD ([2]; Visit 3 (Week 6)): 44.44 ± 14.04 mg/dL
- HOMA of Beta Cell Function for Insulin, Mean ± SD ([2]; Visit 3 (Week 6)): 136.41 ± 76.00
- TG, Mean ± SD ([2]; Visit 3 (Week 6)): 172.81 ± 106.30 mg/dL
- Homa of Insulin Resistance for C-Peptide, Median ([2]; Visit 3 (Week 6)): 1.70
- Insulin (fasting), Median ([2]; Visit 3 (Week 6)): 8.35 μu/mL
- HDL Cholesterol, Median ([2]; Visit 3 (Week 6)): 43.36 mg/dL
- HOMA of Beta Cell Function for Insulin, Median ([2]; Visit 3 (Week 6)): 116.50
- TG, Median ([2]; Visit 3 (Week 6)): 147.68 mg/dL
- HOMA of Beta Cell Function for Insulin, % Change from Visit 1 (LS Mean ± SE) ([2]; Visit 3 (Week 6), p 0.0010): 52.50±14.94%
- HOMA of Beta Cell Function for Insulin, % Change from Visit 1 (LS Mean ± SE) ([2]; Visit 3 (Week 6), p 0.0010, listed as COMPOUND OF FORMULA(I)): 52.50 ± 14.94%
- HOMA of Beta Cell Function for Insulin, Change from Visit 1 (LS Mean ± SE) ([2]; Visit 3 (Week 6), p 0.0015): 29.55 ± 8.76
- HDL Cholesterol, % Change from Visit 1 (LS Mean ± SE) ([2]; Visit 3 (Week 6), p <0.0001): 29.92±5.73%
- HDL Cholesterol, Change from Visit 1 (LS Mean ± SE) ([2]; Visit 3 (Week 6), p <0.0001): 9.17 ± 1.99 mg/dL
- Homa of Insulin Resistance for C-Peptide, % Change from Visit 1 (LS Mean ± SE) ([2]; Visit 3 (Week 6), p <0.0001): 27.87±4.22%
- Homa of Insulin Resistance for C-Peptide, Change from Visit 1 (LS Mean ± SE) ([2]; Visit 3 (Week 6), p <0.0001): 0.27 ± 0.05
- Insulin (fasting), % Change from Visit 1 (LS Mean ± SE) ([2]; Visit 3 (Week 6), p <0.0001): 23.71±3.55%
- Insulin (fasting), Change from Visit 1 (LS Mean ± SE) ([2]; Visit 3 (Week 6), p <0.0001): 1.21 ± 0.22 μu/mL
- TG, % Change from Visit 1 (LS Mean ± SE) ([2]; Visit 3 (Week 6), p <0.0001): -40.98±4.89%
- TG, Change from Visit 1 (LS Mean ± SE) ([2]; Visit 3 (Week 6), p <0.0001): -128.87 ± 14.96 mg/dL
- HDL Cholesterol, % Change from Visit 1 (LS Mean ± SE) [2, 4]: 29.92 ± 5.73%
- Homa of Insulin Resistance for C-Peptide, % Change from Visit 1 (LS Mean ± SE) [2, 4]: 27.87 ± 4.22%
- Insulin (fasting), % Change from Visit 1 (LS Mean ± SE) [2, 4]: 23.71 ± 3.55%
- TG, % Change from Visit 1 (LS Mean ± SE) [2, 4]: −40.98 ± 4.89%
- HDL Cholesterol, Maximum ([2]; Visit 4 (Week 12)): 82.89 mg/dL
- HDL Cholesterol, Minimum ([2]; Visit 4 (Week 12)): 17.61 mg/dL
- HOMA of Beta Cell Function for Insulin, Maximum ([2]; Visit 4 (Week 12)): 273.30
- HOMA of Beta Cell Function for Insulin, Minimum ([2]; Visit 4 (Week 12)): 9.80
- Homa of Insulin Resistance for C-Peptide, Maximum ([2]; Visit 4 (Week 12)): 3.60
- Homa of Insulin Resistance for C-Peptide, Minimum ([2]; Visit 4 (Week 12)): 1.10
- Insulin (fasting), Maximum ([2]; Visit 4 (Week 12)): 24.29 μu/mL
- Insulin (fasting), Minimum ([2]; Visit 4 (Week 12)): 5.93 μu/mL
- TG, Maximum ([2]; Visit 4 (Week 12)): 387.69 mg/dL
- TG, Minimum ([2]; Visit 4 (Week 12)): 46.88 mg/dL
- Homa of Insulin Resistance for C-Peptide, Mean ± SD ([2]; Visit 4 (Week 12)): 2.15 ± 0.62
- Insulin (fasting), Mean ± SD ([2]; Visit 4 (Week 12)): 11.40 ± 4.45 μu/mL
- HDL Cholesterol, Mean ± SD ([2]; Visit 4 (Week 12)): 46.14 ± 14.84 mg/dL
- HOMA of Beta Cell Function for Insulin, Mean ± SD ([2]; Visit 4 (Week 12)): 137.56 ± 46.11
- TG, Mean ± SD ([2]; Visit 4 (Week 12)): 166.97 ± 89.17 mg/dL
- Homa of Insulin Resistance for C-Peptide, Median ([2]; Visit 4 (Week 12)): 2.10
- Insulin (fasting), Median ([2]; Visit 4 (Week 12)): 10.18 μu/mL
- HDL Cholesterol, Median ([2]; Visit 4 (Week 12)): 47.70 mg/dL
- HOMA of Beta Cell Function for Insulin, Median ([2]; Visit 4 (Week 12)): 125.60
- TG, Median ([2]; Visit 4 (Week 12)): 145.91 mg/dL
- HDL Cholesterol, % Change from Visit 1 (LS Mean ± SE) ([2]; Visit 4 (Week 12), p <0.0001): 34.56±6.13%
- HDL Cholesterol, Change from Visit 1 (LS Mean ± SE) ([2]; Visit 4 (Week 12), p <0.0001): 10.87 ± 2.08 mg/dL
- HOMA of Beta Cell Function for Insulin, % Change from Visit 1 (LS Mean ± SE) ([2]; Visit 4 (Week 12), p <0.0001): 45.64±6.22%
- HOMA of Beta Cell Function for Insulin, Change from Visit 1 (LS Mean ± SE) ([2]; Visit 4 (Week 12), p <0.0001): 30.78 ± 4.25
- Homa of Insulin Resistance for C-Peptide, % Change from Visit 1 (LS Mean ± SE) ([2]; Visit 4 (Week 12), p <0.0001): 58.29±5.74%
- Homa of Insulin Resistance for C-Peptide, Change from Visit 1 (LS Mean ± SE) ([2]; Visit 4 (Week 12), p <0.0001): 0.56 ± 0.05
- Insulin (fasting), % Change from Visit 1 (LS Mean ± SE) ([2]; Visit 4 (Week 12), p <0.0001): 47.10±4.21%
- Insulin (fasting), Change from Visit 1 (LS Mean ± SE) ([2]; Visit 4 (Week 12), p <0.0001): 2.20 ± 0.21 μu/mL
- TG, % Change from Visit 1 (LS Mean ± SE) ([2]; Visit 4 (Week 12), p <0.0001): -45.11±3.60%
- TG, Change from Visit 1 (LS Mean ± SE) ([2]; Visit 4 (Week 12), p <0.0001): -134.71 ± 10.78 mg/dL
- HDL Cholesterol, % Change from Visit 1 (LS Mean ± SE) [2, 5]: 34.56 ± 6.13%
- HOMA of Beta Cell Function for Insulin, % Change from Visit 1 (LS Mean ± SE) [2, 5]: 45.64 ± 6.22%
- Homa of Insulin Resistance for C-Peptide, % Change from Visit 1 (LS Mean ± SE) [2, 5]: 58.29 ± 5.74%
- Insulin (fasting), % Change from Visit 1 (LS Mean ± SE) [2, 5]: 47.10 ± 4.21%
- TG, % Change from Visit 1 (LS Mean ± SE) [2, 5]: −45.11 ± 3.60%
- increase in the HOMA of Beta-cell function derived from C-peptide from baseline ([2]; Week 6, p 0.0104): 68.25±25.58
- HOMA of insulin resistance derived from insulin, percent change from baseline ([2]; Week 6, p <0.0001): 29.10±3.94%
- change in the non-HDL cholesterol levels from baseline ([2]; Week 6 and Week 12, p-values 0.3963 and 0.4646): no statistically significant change
- HOMA of insulin resistance derived from insulin, percent change from baseline ([2]; Week 12, p <0.0001): 42.65±3.79%
- increase in the HOMA of Beta-cell function derived from C-peptide from baseline ([2]; Week 12, p <0.0001): 71.67±16.20

Molecule: C[C@]12CC[C@H]3[C@@H](CCC4=CC(=O)CC[C@@]43C)[C@@H]1CC[C@@H]2O [testosterone]
- change in VAT ([3]; placebo +2.3%, no statistically significant difference): +0.9%
- change in limb fat ([3]; placebo +3.1%, statistically significant): −10.1%
- change in abdominal fat ([3]; placebo +4.3%, statistically significant): −1.5%
- change in trunk fat ([3]; placebo +4.6%, statistically significant): −9.9%
- change in abdominal subcutaneous adipose tissue (SAT) ([3]; placebo +8.1%, statistically significant): −7.2%

Reference: patent US9783495B2, “Treatment for lipodystrophy” (Cadila Healthcare Limited, priority 2011, dated 2017)
